Experimental data as given in article PMC8491553 (ACS Medicinal Chemistry Letters, 2021).

Target: SARS-CoV-2 main protease (3CLpro) (Severe acute respiratory syndrome coronavirus 2, UniProt P0DTD1)
Format: biochemical

| SMILES | activity as main protease inhibitor (in words) |
| --- | --- |
| CC12CN(CC(=O)O)CC(C)(CN(CC(=O)O)C1)C2=O [Compound 4m] | lower micromolar range |
| C#CCN1CC2(C)CN(CC#C)CC(C)(C1)C2=O [Compound 4c] | lower micromolar range |
| Cc1cc(CN2CC3(C)CN(Cc4cc(C)no4)CC(C)(C2)C3=O)on1 [Compound 4o] | lower micromolar range |
| Cn1nc(C(=O)N2CC3(C)CN(C(=O)c4nn(C)c5c4CCc4ccccc4-5)CC(C)(C2)C3=O)c2c1-c1ccccc1CC2 [Compound 2j] | submicromolar range |
| CC(C)Cc1ccc(C(C)C(=O)O)cc1 (stereo not shown) [Ibuprofen, reference compound] | no activity at all |
| CC12CN(Cc3ccccc3)CC(C)(CN(Cc3ccccc3)C1)C2=O [Compound 4d] | submicromolar activity |
| CC(C)(C)OC(=O)Cn1cc(CN2CC3(C)CN(Cc4cn(CC(=O)OC(C)(C)C)nn4)CC(C)(C2)C3=O)nn1 [Compound 4p] | lower micromolar range |
| CC(C)(C)OC(=O)NCCn1cc(CN2CC3(C)CN(Cc4cn(CCNC(=O)OC(C)(C)C)nn4)CC(C)(C2)C3=O)nn1 [Compound 4q] | submicromolar activity |
| CC12CN(Cc3cn(Cc4ccccc4)nn3)CC(C)(CN(Cc3cn(Cc4ccccc4)nn3)C1)C2=O [Compound 4r] | lower micromolar range |
| CC12CN(CC#N)CC(C)(CN(CC#N)C1)C2=O [Compound 4l] | lower micromolar range |
